Experimental data as given in the METLIN SMRT retention time set (Domingo-Almenara et al. 2019).

Assay: gradient 5% acetonitrile 3 min, to 50% in 2 min, to 85% in 15 min, held 3 min, 100 µL/min
Conditions: column: Zorbax Extend-C18 2.1 x 50 mm; eluents: water / acetonitrile, 0.1% formic acid
Outline: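 Each retention time is based on an adduct peak selected computationally and verified by manual inspection. Measurements used HPLC–quadrupole time-of-flight mass spectrometry in positive and negative ionization mode on mixtures of ~100 pure standards. Chromatography ran on a Zorbax Extend-C18 column (2.1 × 50 mm, 1.8 μm) at 100 μL/min with water and acetonitrile, each containing 0.1% formic acid, and dead and dwell volumes of 40 μL and 900 μL.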
`Cc1cc(C(=O)Nc2ccc3c(c2)C(=O)N(C)CCO3)no1` showed an RP-LC retention time of 624 s. Compound `O=c1ccn(-c2ccc(F)c(F)c2)nc1-c1nc(-c2cccc(F)c2)no1` has an RP-LC retention time of 923 s. With `CN(C)S(=O)(=O)N1CCCC(c2nc(-c3ccccc3)no2)CCNC(=O)CC1` (stereo not given) the RP-LC retention time was 782 s. With `CCCCN(Cc1nc2nc(C)cc(C)n2n1)C(=O)c1ccccc1` the RP-LC retention time was 757 s. `O=S(=O)(Nc1ccc(Cn2cncn2)cc1)c1ccccc1F` showed an RP-LC retention time of 688 s. Compound `COc1cccc(NC(=O)N2CCC(c3nc4ccncc4n3C(C)C)C2)c1` (stereo not given) has an RP-LC retention time of 535 s. For `COc1cccc(CNC(=O)N2CCCCC2c2nncn2C)c1` (stereo not given), the RP-LC retention time was 625 s. In the case of `O=S(=O)(Cc1ccccc1)N1CC(n2cc(COc3ccc(F)cc3)nn2)C1`, the RP-LC retention time is reported as 899 s. Work on `O=S(=O)(c1ccc(C(F)(F)F)cc1)N1CCCC(Cn2cnc3cccnc32)C1` (stereo not given) yielded an RP-LC retention time of 831 s. In the case of `CCCN1C(=O)COc2ccc(-c3noc(-c4cccc(F)c4)n3)cc21`, the RP-LC retention time is reported as 1200 s. With `CCn1c(CCNC(=O)c2ccc3ccccc3n2)nc2cccnc21` the RP-LC retention time was 685 s. For `Cc1cccn2cc(-c3cccc(NS(=O)(=O)c4ccc(Cl)cc4)c3)nc12`, the RP-LC retention time was 686 s. With `Cc1cc2c(=O)n(CC(=O)NCc3ccccc3F)ccc2s1` the RP-LC retention time was 732 s. In the case of `CN1CCN(c2ccc(NC(=O)C(C)(C)C)c(C(=O)O)c2)CC1`, the RP-LC retention time is reported as 601 s. Compound `O=C(NCCc1cccs1)c1cccc(N2CCNC(c3ccccc3)C2)n1` (stereo not given) has an RP-LC retention time of 656 s. For `COc1cccc(NC(=O)Nc2c(-c3ccc(F)cc3)nc3ccccn23)c1`, the RP-LC retention time was 677 s. With `O=C1CCCc2nc(N3CCN(c4ccccc4F)CC3)ncc21` the RP-LC retention time was 1060 s. `COc1cc(OC)c(NC(=O)NC2CCN(c3ccc(F)c(C)c3)C2=O)cc1Cl` (stereo not given) gave an RP-LC retention time of 888 s. `CCc1ccc2c(c1)-c1ccccc1S(=O)(=O)N2CC(=O)N1CCN(CC)CC1` gave an RP-LC retention time of 678 s. For `Cc1ccc(NC(=O)N2CCN(c3nc4ccccc4nc3C(F)(F)F)CC2)cc1F`, the RP-LC retention time was 1150 s. `CCc1nc(-c2csc(S(=O)(=O)N3CCC(C(=O)Nc4ccc(OC)cc4)CC3)c2)no1` showed an RP-LC retention time of 930 s. With `CC(C)OC(=O)c1c(-c2ccccc2)c(-c2ccccc2)n[nH]c1=O` the RP-LC retention time was 910 s. Work on `CCC(C(=O)Nc1cccc(C)c1)n1cnc2nc3c(cc2c1=O)CCCC3` (stereo not given) yielded an RP-LC retention time of 834 s. In the case of `Cc1ccccc1Cn1nc2ccc(S(=O)(=O)N3CCC(C)CC3)cn2c1=O`, the RP-LC retention time is reported as 1060 s. For `CCc1nc2cc(-c3noc(Cc4cccc(Cl)c4)n3)ccc2o1`, the RP-LC retention time was 1170 s. With `O=C(NCCCn1cccn1)C1CN(S(=O)(=O)c2ccccc2)CC12CCCCC2` (stereo not given) the RP-LC retention time was 819 s. In the case of `CCNc1cc(N2CCC(CCC(=O)NCCN3CCc4ccccc4C3)CC2)ncn1`, the RP-LC retention time is reported as 572 s. `CCc1ccc(-c2nc(-c3ccc(-n4cccn4)nc3)no2)cc1` gave an RP-LC retention time of 1470 s. Work on `COc1cccc2cc(C(=O)NCC3CCN(C(=O)c4snnc4C)CC3)oc12` yielded an RP-LC retention time of 697 s. `CC1CCCCN1CCN(CCC(=O)N1CCNCC1)C(=O)c1ccc(C(F)(F)F)cc1` (stereo not given) gave an RP-LC retention time of 569 s. In the case of `CCn1cc(S(=O)(=O)Nc2cccc(F)c2)c2cccnc21`, the RP-LC retention time is reported as 817 s. Compound `CCc1cccc(C)c1Nc1c(-c2ccc(O)c(OC)c2)nc2nc(C)cc(C)n12` has an RP-LC retention time of 710 s. Work on `CCc1ccccc1NC(=O)Cn1ncc2c(c1=O)N(C1CC1)C(=O)CS2` yielded an RP-LC retention time of 718 s. Compound `COc1ccc(NC(=O)c2cn(-c3cc(N4CCC(C)CC4)ncn3)cn2)c(OC)c1` has an RP-LC retention time of 1150 s. `CCOC(=O)C1CCC(CNC(=O)N2CCN(Cc3nc4cc(C)ccc4o3)CC2)CC1` (stereo not given) gave an RP-LC retention time of 735 s. Compound `O=C(CSc1nc2ccccc2o1)NCCn1nc(-c2cccs2)ccc1=O` has an RP-LC retention time of 718 s. For `Cn1cc(S(=O)(=O)N2CCC(C(=O)NC3CCCCCC3)CC2)cc1C(=O)N1CCCC1`, the RP-LC retention time was 770 s. `Cc1ccccc1CC(=O)N1CCC2(CC1)NC(=O)c1cc(F)ccc1N2C` gave an RP-LC retention time of 787 s. `CN(Cc1ccccc1)C(=O)c1ccc(NC(=O)[C@H]2[C@@H]3C[C@@H]4[C@H]2C(=O)O[C@@H]4C3)cc1` gave an RP-LC retention time of 775 s. `CN(C)c1cc(-n2cnc(C(=O)NCc3ccc(Cl)cc3)c2)ncn1` showed an RP-LC retention time of 825 s. Work on `CC(C)(C)NC(=O)N1CCC2(CC1)CC(Cc1nc(-c3cnccn3)no1)CCO2` (stereo not given) yielded an RP-LC retention time of 720 s. In the case of `Cc1ccc(C(C)C)c(OCC(=O)N(Cc2ccc(C)o2)C2CCS(=O)(=O)C2)c1` (stereo not given), the RP-LC retention time is reported as 1110 s. Work on `O=C(Nc1ccc(Br)cc1F)Nc1c(-c2ccc(F)cc2)nc2ccccn12` yielded an RP-LC retention time of 744 s. Compound `O=C(Nc1ccccc1)c1cnn2c1CCCC2` has an RP-LC retention time of 699 s. Work on `COc1cccc(OCC(O)CN2CCN(Cc3ccccc3)CC2)c1` (stereo not given) yielded an RP-LC retention time of 610 s.
